Data on 17 compounds can be found in ChEMBL document CHEMBL1201862, “PubChem BioAssay data set” (2004).

Assay [1] deals with T1, Polyadenylate-binding protein 1 (Homo sapiens, UniProt P11940). Description: MLLE domain peptide-binding blockers, IC50 – biochemical, fluorescence polarization, FITC-PAM2 peptide, dose response (AID 602259). The following applies: read-out: IC50_Mean. In kind it is functional.
Assay [2] deals with T1, Polyadenylate-binding protein 1. Briefly: MLLE binding blockers, Cy5 peptide tracer – biochemical, fluorescence polarization, Cy5-PAM2 peptide, secondary, miRNA deadenylation inhibitor project, dose response (AID 602260). In kind it is functional. The following applies: read-out: IC50_Mean. (In fluorescence polarisation assays a small probe gives low polarisation when free and higher when bound to something large.)

In assay [3] the target is Cytochrome P450 2C9 (Homo sapiens, UniProt P11712).
Cytochrome P450 2C9, sequence (P11712 whole entry): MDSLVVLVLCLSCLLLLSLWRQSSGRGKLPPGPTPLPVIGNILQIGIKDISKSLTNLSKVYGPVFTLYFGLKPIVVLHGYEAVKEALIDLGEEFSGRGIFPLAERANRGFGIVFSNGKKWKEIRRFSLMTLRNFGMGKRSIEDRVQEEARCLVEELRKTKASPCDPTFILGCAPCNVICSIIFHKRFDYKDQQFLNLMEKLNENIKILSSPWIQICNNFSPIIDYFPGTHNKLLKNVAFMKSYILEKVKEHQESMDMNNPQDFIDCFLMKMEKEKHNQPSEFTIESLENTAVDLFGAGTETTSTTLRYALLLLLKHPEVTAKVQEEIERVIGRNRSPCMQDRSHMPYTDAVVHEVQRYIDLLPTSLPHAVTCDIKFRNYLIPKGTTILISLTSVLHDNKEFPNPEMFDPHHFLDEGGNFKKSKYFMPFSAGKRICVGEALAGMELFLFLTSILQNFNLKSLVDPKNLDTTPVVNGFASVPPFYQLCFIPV
Assay [4] has as its target T2, Cytochrome P450 1A2 (Homo sapiens, UniProt P05177).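 Also: PubChem cytochrome P450 panel assay, CYP1A2 panel member.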
T2 sequence (P05177 whole entry): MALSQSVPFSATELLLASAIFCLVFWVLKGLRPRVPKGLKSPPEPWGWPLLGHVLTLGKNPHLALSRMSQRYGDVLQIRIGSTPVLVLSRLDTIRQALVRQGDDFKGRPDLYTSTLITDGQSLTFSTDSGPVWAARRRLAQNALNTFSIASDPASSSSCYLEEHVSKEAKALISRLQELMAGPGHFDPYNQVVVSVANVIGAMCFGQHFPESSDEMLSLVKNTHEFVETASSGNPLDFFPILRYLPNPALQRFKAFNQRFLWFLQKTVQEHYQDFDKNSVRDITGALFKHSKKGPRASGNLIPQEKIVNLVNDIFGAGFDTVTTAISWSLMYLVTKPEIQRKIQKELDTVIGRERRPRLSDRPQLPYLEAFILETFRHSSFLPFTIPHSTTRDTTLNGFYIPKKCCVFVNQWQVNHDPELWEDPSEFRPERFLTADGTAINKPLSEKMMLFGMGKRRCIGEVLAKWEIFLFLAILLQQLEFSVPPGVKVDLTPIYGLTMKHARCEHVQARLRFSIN

A short description of assay [5]: viability of uninfected HEp-2 cells – cell-based, HTS, cytotoxicity control for RSV inhibitor project, dose response (AID 2410). In kind it is functional. The following applies: human respiratory syncytial virus.
Assay [6] can be described thus: alpha-synuclein stem-loop luciferase translation blockers – H4 neuroglioma cells, luminescence, confirmation (AID 1988). In kind it is functional, cell-based.
A short description of assay [7]: luciferase reporter signal suppression in cells – H4 neuroglioma cells, luminescence, dose response (AID 1990). In kind it is functional, cell-based. For orientation: Reporter assays use an easily measured gene product as a stand-in for the process of interest.
Assay [8] in a line: HEK-293T cell viability reduction – luminescence, B-cell screen hits, cytotoxicity control for BCR NF-kB inhibitor project, dose response (AID 489021).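 Also: HEK-293T cells carrying an NF-kB luciferase reporter; cells exposed to compound for about 14 hours before viability readout.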 In kind it is functional, cell-based.
Assay [9] can be described thus: Luminescence Cell-Based Dose Response HTS to Identify Inhibitors of 5'UTR Stem-Loop Driven Prion Protein mRNA Translation in H4 Neuroglioblastoma Cells. [Related pubchem assays: 1827 (Project Summary), 1813 (Primary HTS)]. In kind it is functional.
Assay [10] in a line: Luminescence Cell-Based Dose Retest to Confirm Inhibitors of Cancer Stem Cells. [Related pubchem assays (depositor defined):AID2717, AID2721]. In kind it is functional. The following applies: Homo sapiens.
Assay [11] can be described thus: viability of PTEN-deleted HCT116 cells – cell-based, HCT116 PTEN knockout, dose response (AID 1047).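 Also: HCT116 colon tumor cells with PTEN knocked out; cells exposed to compound for 60 hours before readout; potency for loss of cell viability measured by luminescence.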 In kind it is functional.
Assay [12] can be described thus: viability of HCT116 lacking mutant beta-catenin – cell-based, human colon tumor, dose response (AID 1045).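 Also: HCT116 colon tumor cells with beta catenin knocked out; cells exposed to compound for 60 hours.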 In kind it is functional.

Active and inactive are the calls of the source. Bounds are passed on as bounds.

T1 sequence (P11940 whole entry, the tested form may be a part): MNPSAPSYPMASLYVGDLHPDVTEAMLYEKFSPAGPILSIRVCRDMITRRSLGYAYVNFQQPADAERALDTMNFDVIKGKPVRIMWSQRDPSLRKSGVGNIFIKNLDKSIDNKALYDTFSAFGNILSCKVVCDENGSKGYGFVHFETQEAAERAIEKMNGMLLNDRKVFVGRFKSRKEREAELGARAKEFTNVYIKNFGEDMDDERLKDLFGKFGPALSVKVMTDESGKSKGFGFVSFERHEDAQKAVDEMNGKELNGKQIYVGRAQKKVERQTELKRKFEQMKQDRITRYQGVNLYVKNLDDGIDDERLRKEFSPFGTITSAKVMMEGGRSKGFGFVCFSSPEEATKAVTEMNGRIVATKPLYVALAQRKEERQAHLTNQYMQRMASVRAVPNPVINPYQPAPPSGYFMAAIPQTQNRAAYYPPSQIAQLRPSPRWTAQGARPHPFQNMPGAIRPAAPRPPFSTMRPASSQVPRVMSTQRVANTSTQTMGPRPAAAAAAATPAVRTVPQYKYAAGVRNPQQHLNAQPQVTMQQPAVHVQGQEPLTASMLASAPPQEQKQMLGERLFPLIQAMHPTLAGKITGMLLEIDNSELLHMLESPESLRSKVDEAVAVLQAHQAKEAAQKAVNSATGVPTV

Consider `FC(F)(F)c1cccc(NC(S)=NN=C(S)NCc2ccccc2)c1`, for which the IC50 in [1] and in assay [2] was > 66 µM (inactive) throughout. Turning to `CC1CCN(C(=S)c2ccc(O)cc2)CC1`, the IC50 in assay [1] and in assay [2] was > 66 µM (inactive) in each case. Also, the results for the AC50 in [3] and in assay [4] were 39.8 µM (inconclusive) and 14.1 µM (inconclusive), respectively.

`CC(C)c1ccccc1NC(=O)c1cccc(NC(=O)c2ccccc2)c1`: in assay [5], the CC50 (commonly the concentration at which the toxic effect on the cells reaches its halfway point) is 20.3 µM (active).

In the case of `Cc1onc(-c2ccccc2Cl)c1C(=O)Nc1sc2c(c1C(N)=O)CCC(C)C2` (stereo not drawn), the CC50 in [5] is 19.3 µM (active). In the case of `Cc1ccc(NC(=O)C2CCC(CNc3c(N4CCC(C)CC4)c(=O)c3=O)CC2)cc1F` (stereo not drawn), the half-maximal effective concentration (EC50) (usually the concentration that produces a half-maximal response) was > 120 µM (not active) in assay [6], 11.5 µM (active) in [7] and > 120 µM (not active) in assay [9]. In addition, in [8], the IC50 is > 80 µM (inactive). In the case of `COc1ccc(Br)cc1C(=O)NC(=S)Nc1cc(-c2nc3ccccc3[nH]2)ccc1C`, the IC50 in [1] and in assay [2] was > 66 µM (inactive) throughout. Also, in assay [10], the AC50 (in general, the concentration at which the activity in the assay is half-maximal) is > 195 µM (inactive). As to `CCOC(=O)C1SC2(C(F)(F)F)CC1(O)c1c(C)cc(C)nc1O2` (stereo not drawn), the IC50 in assay [1] and in [2] was > 66 µM (inactive) in each case. `C=CCN1C(=O)/C(=C\c2ccc(Cl)cc2)N=C1SCC(=O)NC1CCCCC1`: the IC50 in [1] and in assay [2] was > 66 µM (inactive) each time.

On to `O=C(O)CCC(C(=O)O)N1C(=O)/C(=C2/C(=O)Nc3ccccc32)SC1=S` (stereo not drawn), for which the IC50 in assay [1] and in assay [2] was > 66 µM (inactive) each time.

As for `O=C(Nc1ccc2c(c1)Cc1ccccc1-2)c1cccnc1`, the CC50 in [5] was 20.3 µM (active). With `COc1cccc(NC(=O)CSC(N)=O)c1`, the IC50 in assay [1] and in assay [2] was > 66 µM (inactive) in each case.

On to `COc1ccc(CNc2ccc(S(N)(=O)=O)cc2)cc1`, for which the IC50 in assay [1] and in assay [2] was > 66 µM (inactive) in each case.

For the compound `COc1ccc(OC)c(S(=O)(=O)Nc2ccc(-c3ccc4nnc(C)n4n3)cc2)c1`, the IC50 in assay [8] was > 80 µM (inactive). Same read-out and setting: then `Cc1c(NC(=O)/C=C/c2cn(-c3ccccc3)nc2-c2ccccc2)c(=O)n(-c2ccccc2)n1C`, with > 80 µM (inactive); and `CC1CCN(CCCNC(=O)COc2cc(=O)n(C)c3ccccc23)CC1`, with > 80 µM (inactive).

As to `CC(C)c1ccc(/C=N/N2CCN(c3ccccn3)CC2)cc1`, the CC50 in assay [5] is 35.7 µM (active).

As to `COC(=O)c1cc(=O)n(Cc2ccc3c(c2)OCO3)/c(=N/c2ccc(F)cc2)s1`, in assay [5], the CC50 was 33.2 µM (active). The EC50 in assay [11] was 27.9 µM (active); in [12], 26.2 µM (active).
